According to the supplement of paper PMC4862054:

Legend:
Experiment in all cases: drug sensitivity score (DSS), CellTiter-Glo (DSS (AUC-based score)); higher = stronger drug effect (viability inhibition or cytotoxicity); extreme values may be limits of the assay
Conditions in all cases: incubation time: 72 h
MDA-MB-436 = test system: MDA-MB-436
Summary of the method: (§1)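 Each compound occupied 5 concentrations in 10-fold steps over its own 10,000-fold range in 384-well plates, into which breast cancer cell lines were seeded as 20 µl suspension. Following 72 h of incubation, CellTox Green fluorescence (485/520 nm) was measured, and CellTiter-Glo luminescence was measured after 10 min at room temperature. Plates were individually normalised to 0.1 % DMSO and a positive kill control. From the area under the fitted dose-response curve, a drug sensitivity score was calculated.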

CAL-148 = test system: CAL-148
Summary of the method: as §1

MDA-MB-468 = test system: MDA-MB-468
Summary of the method: as §1

BT-549 = test system: BT-549
Summary of the method: as §1

Hs578T = test system: Hs578T
Summary of the method: as §1

CAL-120 = test system: CAL-120
Summary of the method: as §1

MFM-223 = test system: MFM-223
Summary of the method: as §1

BT-474 = test system: BT-474
Summary of the method: as §1

MDA-MB-231 = test system: MDA-MB-231
Summary of the method: as §1

HCC1143 = test system: HCC1143
Summary of the method: as §1

MDA-MB-453 = test system: MDA-MB-453
Summary of the method: as §1

MCF-10A = test system: MCF-10A
Summary of the method: as §1

CAL-51 = test system: CAL-51
Summary of the method: as §1

HCC1937 = test system: HCC1937
Summary of the method: as §1

DU-4475 = test system: DU-4475
Summary of the method: as §1

| SMILES | drug sensitivity score (MDA-MB-436) | drug sensitivity score (CAL-148) | drug sensitivity score (MDA-MB-468) | drug sensitivity score (BT-549) | drug sensitivity score (Hs578T) | drug sensitivity score (CAL-120) | drug sensitivity score (MFM-223) | drug sensitivity score (BT-474) | drug sensitivity score (MDA-MB-231) | drug sensitivity score (HCC1143) | drug sensitivity score (MDA-MB-453) | drug sensitivity score (MCF-10A) | drug sensitivity score (CAL-51) | drug sensitivity score (HCC1937) | drug sensitivity score (DU-4475) |
| --- | --- | --- | --- | --- | --- | --- | --- | --- | --- | --- | --- | --- | --- | --- | --- |
| Oc1ncnc2[nH]ncc12 [Allopurinol] | 0 | 0 | 0 | 0 | 0 | 0 | 0 | 0 | 0 | 0 | 0 | 0 | 0 | 0 | 0 |
| CC1=C2C[C@H]3[C@@H](CC=C4C[C@@H](O)CC[C@@]43C)[C@@H]2CC[C@]12O[C@@H]1C[C@H](C)CN[C@H]1[C@H]2C [Cyclopamine] | 0 | 0 | 0 | 0 | 0 | 0 | 0 | 0 | 0 | 0 | 0 | 0 | 0 | 0 | 0 |
| CC(=O)N(O)CCCCCNC(=O)CCC(=O)N(O)CCCCCNC(=O)CCC(=O)N(O)CCCCCN [Deferoxamine] | 4.73 | 9.03 | 7.85 | 5.68 | 2.31 | 0 | 0 | 0 | 0 | 3.11 | 0 | 0 | 3.33 | 3.29 | 5.21 |
| O=C1CN2Cc3c(ccc(Cl)c3Cl)N=C2N1 [Anagrelide] | 0 | 0 | 0 | 0 | 1.32 | 0 | 0 | 0.269 | 0 | 0 | 0 | 0 | 0.565 | 0 | 0 |
| C[C@]12CC[C@@H]3c4ccc(OC(=O)N(CCCl)CCCl)cc4CC[C@H]3[C@@H]1CC[C@@H]2O [Estramustine] | 0 | 0 | 0.683 | 0 | 0 | 0 | 0 | 0 | 0 | 0 | 0 | 0 | 2.19 | 0 | 0 |
| Cn1cc(C2=Nc3cc(NC(=O)C(N)C4CCCCC4)cc4c3C2=CNNC4=O)cn1 (stereo not given) | 9.88 | 0 | 14.4 | 14.6 | 12.1 | 6.28 | 12.2 | 6.46 | 7.52 | 7.81 | 14.3 | 2.96 | 5.76 | 4.78 | 2.68 |
| COc1cc(F)c(F)c(Nc2ccc(I)cc2F)c1NS(=O)(=O)C1(C[C@H](O)CO)CC1 [Refametinib] | 4.19 | 2.69 | 7.13 | 2.33 | 4.13 | 7.28 | 5.74 | 8.51 | 9.15 | 2.8 | 0 | 23.6 | 0 | 4.08 | 26.1 |
| Cn1cnc2c(F)c(Nc3ccc(Br)cc3Cl)c(C(=O)NOCCO)cc21 [Selumetinib] | 0.63 | 0 | 2.35 | 0.661 | 0 | 3 | 0 | 7.93 | 5.56 | 0 | 0 | 17.3 | 0 | 0 | 19.9 |
| C[C@]1(O)C[C@@H](c2nc(-c3ccc4ccc(-c5ccccc5)nc4c3)c3c(N)nccn32)C1 [Linsitinib] | 0.173 | 0 | 4.62 | 0 | 0 | 1.76 | 0 | 3.89 | 0 | 1.82 | 2.26 | 12.5 | 0 | 0 | 0 |
| CC1(C)CNc2cc(NC(=O)c3cccnc3NCc3ccncc3)ccc21 [Motesanib] | 0 | 0 | 0.164 | 0 | 0 | 0 | 0 | 0 | 0 | 0 | 0 | 0 | 0 | 0 | 0 |
| CC(=O)O[C@@]12CO[C@@H]1C[C@H](O)[C@@]1(C)C(=O)[C@H](O)C3=C(C)[C@@H](OC(=O)[C@H](O)[C@@H](NC(=O)OC(C)(C)C)c4ccccc4)C[C@@](O)([C@@H](OC(=O)c4ccccc4)[C@H]21)C3(C)C [Docetaxel] | 22 | 20.5 | 27.3 | 30.5 | 27.2 | 13.3 | 16.7 | 15.6 | 19.4 | 23.7 | 14.8 | 20.4 | 19.5 | 10.6 | 15.1 |
| Nc1ncn([C@@H]2O[C@H](CO)[C@@H](O)[C@H]2O)c(=O)n1 [Azacitidine] | 4.78 | 0 | 12.1 | 5.75 | 0 | 0 | 0 | 1.74 | 0 | 0 | 0 | 0 | 0 | 0 | 0 |
| Cc1sc2c(c1C)C(c1ccc(Cl)cc1)=N[C@@H](CC(=O)OC(C)(C)C)c1nnc(C)n1-2 [(+)JQ1] | 2.63 | 6.21 | 9.62 | 13.3 | 12.8 | 4.19 | 8.38 | 7.3 | 3.61 | 5.11 | 10.7 | 9.62 | 1.66 | 3.6 | 9.61 |
| CC(=O)c1c(C)c2cnc(Nc3ccc(N4CCNCC4)cn3)nc2n(C2CCCC2)c1=O [Palbociclib] | 0 | 0 | 4.56 | 0 | 0.478 | 3.04 | 5.89 | 4.46 | 0 | 0 | 0 | 3.99 | 0.79 | 0 | 0 |
| Nc1nc2[nH]cnc2c(=S)[nH]1 [Thioguanine] | 4.37 | 1.29 | 1.72 | 1.98 | 6.84 | 6.5 | 0 | 12 | 10.2 | 0.8 | 1.4 | 0 | 5.29 | 8.45 | 4.33 |
| CC[C@@H]1C(=O)OC[C@@H]1Cc1cncn1C [Pilocarpine] | 0 | 0 | 0 | 0 | 0 | 0 | 0 | 0 | 0 | 0 | 0 | 0 | 0 | 0 | 0 |
| O=NN(CCCl)C(=O)NCCCl [Carmustine] | 0 | 0 | 0 | 0 | 0 | 0 | 0 | 0 | 0 | 0 | 0 | 0 | 0 | 0 | 0 |
| CC(C)(C)c1cnc(CSc2cnc(NC(=O)C3CCNCC3)s2)o1 [SNS-032] | 23.7 | 10.3 | 28.1 | 27 | 21.8 | 14.8 | 17.1 | 17.8 | 25.3 | 24.3 | 17.7 | 18.6 | 28.6 | 17.2 | 18.9 |
| CC1(C)CCC(CN2CCN(c3ccc(C(=O)NS(=O)(=O)c4ccc(NCC5CCOCC5)c([N+](=O)[O-])c4)c(Oc4cnc5[nH]ccc5c4)c3)CC2)=C(c2ccc(Cl)cc2)C1 [ABT-199] | 0 | 0 | 0.128 | 0 | 0 | 0 | 0 | 0 | 0 | 0 | 0 | 0 | 1.71 | 0 | 0 |
| Cc1ccc([N+](=O)[O-])cc1S(=O)(=O)N(C)/N=C/c1cnc2ccc(Br)cn12 [PIK-75] | 27.1 | 19 | 30.2 | 29 | 29 | 22.4 | 26 | 28.5 | 30.5 | 24 | 23 | 28.4 | 30 | 24 | 29.1 |
| COc1cc2c(cc1O)CC[C@@H]1[C@@H]2CC[C@]2(C)[C@@H](O)CC[C@@H]12 [2-methoxyestradiol] | 6.35 | 2.17 | 4.21 | 10.1 | 7.49 | 4.15 | 4.75 | 5.9 | 5.78 | 3.67 | 5.52 | 0 | 5.34 | 0 | 2.41 |
